Laboratory results published in paper PMC7288168, “Synthesis and Cytotoxic Activity of Chiral Sulfonamides Based on the 2-Azabicycloalkane Skeleton” (Molecules, 2020).

Tests used:
HUVEC cells [1] = assay: Cell viability assay MTT/CellTiter Blue, HUVEC (Table 2); assay type: cell-based; settings: Table 2, nonmalignant primary cells, 24 h, assay as for D425
Protocol: (§1) The human hepatocellular carcinoma (HCC) cell line HUH7 was purchased from ATCC (LGC standards GmbH, Wesel, Germany). The Austrian human HCC cell line AKH12 has been well characterized and was kindly provided by Prof. Bettina Grasl-Kraupp. HUH7 cells were cultured in Dulbecco’s modified Eagle’s medium (Thermo Fisher Scientific, Waltham, MA, USA) containing 10% heat-inactivated fetal bovine serum (FBS) (Sigma-Aldrich, St. Louis, MO, USA), 1% penicillin-streptomycin (10,000 U/mL) (Thermo Fisher Scientific, Waltham, MA, USA), and 1% minimum essential medium nonessential amino acids (100x) (Thermo Fisher Scientific, Waltham, MA, USA). AKH12 cells were cultured in RPMI1640 medium (Sigma-Aldrich, St. Louis, MO, USA) containing 10% heat-inactivated FBS. DAOY and D283Med (short D283) medulloblastoma (MB) cells were purchased from ATCC (LGC standards GmbH, Wesel, Germany). D425Med (short D425) and UW228-2 were provided by Thomas Ströbel from the Institute of Neurology Medical University of Vienna. The cells were cultured in Dulbecco’s modified Eagle’s medium (Sigma-Aldrich, St. Louis, MO, USA) containing 10% FBS (Sigma-Aldrich, St. Louis, MO, USA), 2% L-Glutamine (Sigma-Aldrich, St. Louis, MO, USA), and 0.2% Normocin (Sigma-Aldrich, St. Louis, MO, USA). U-251 MG (short U251) glioblastoma (GBM) cell line was purchased from Sigma-Aldrich and cultured in Dulbecco’s modified Eagle’s medium (Sigma-Aldrich, St. Louis, MO, USA) containing 10% FBS (Sigma-Aldrich, St. Louis, MO, USA), 2% L-Glutamine (Sigma-Aldrich, St. Louis, MO, USA), and 0.2% Normocin (Sigma-Aldrich, St. Louis, Missouri, USA). Human umbilical vein endothelial cells (HUVECs) were provided by Brigitte Winter from the Department of Surgery Medical University of Vienna and were grown in endothelial cell growth medium-2 BulletKitTM (Lonza, Basel, Switzerland) under standard tissue culture conditions. All cells were incubated at 37 °C in a 5% CO2 atmosphere and regularly checked for mycoplasma contamination.
(§2) LD50 was defined as the amount of a toxic agent required to eliminate 50% of the cell population. The LD50 was calculated in each experiment from the respective dose–response curve. All experiments were performed in triplicate wells.
(§3) One day before treatment, 2 × 10^4 of D425Med or HUVEC cells were seeded into 24-well plates and incubated at 37 °C in a humidified atmosphere containing 5% CO2.The cells were treated with different compounds for 24 h. A […] assay using the CellTiter Blue reagent (Promega, Fitchburg, Wisconsin, USA) was performed according to the manufacturer’s protocol. Experiments were performed in triplicate and repeated three times. The percentage of survival was calculated as the ratio using DMSO-treated (indicated as 0 µM concentration) cells as 100% control.

HUVEC cells [2] = assay: Neutral red cell viability assay, HUVEC (Table 1); assay type: cell-based; settings: Table 1, nonmalignant primary cells, 24 h
Protocol: as §1
(§4) Cell viability was determined using a neutral red assay, as previously described. The cells were placed in 24-well plates and grown to reach 70–80% confluency prior to treatment. After treatment for 24 h, cells were incubated with neutral red at a concentration of 50 µg/mL in serum-free medium for 2 h at 37 °C. Cells were then washed 2x and incubated with 1% acetic acid in 70% ethanol. The dye concentration was measured photometrically at 562 nm. The percentage of survival was calculated considering DMSO-treated (indicated as 0 µM concentration) cells as 100% control.
as §2

D283 cells = assay: Neutral red cell viability assay, D283; assay type: cell-based, human; settings: for reduction of cell viability, D283: 50 µM, 24 h, first screening; for IC50: Homo sapiens, D283, 24 h treatment, read-out: LD50 D283 (MB)
Protocol: as §1, §4, §2

U251 cells = assay: Neutral red cell viability assay, U251; assay type: cell-based, human; settings: for decrease of cell viability, U251: 50 µM, 24 h, first screening; for IC50: Homo sapiens, U-251, 24 h treatment, neutral red, read-out: LD50 U251 (GBM)
Protocol: as §1, §4, §2

AKH12 cells = assay: Neutral red cell viability assay, AKH12; assay type: cell-based, human; settings: for reduction of cell viability, AKH12: 50 µM, 24 h, first screening; for IC50: Homo sapiens, 24 h treatment, neutral red, read-out: LD50 AKH12 (HCC)
Protocol: as §1, §4, §2

UW228-2 cells = assay: Neutral red cell viability assay, UW228-2; assay type: cell-based, human; settings: for reduction of cell viability, UW228-2: 50 µM, 24 h, first screening; for IC50: Homo sapiens, UW228-2, 24 h treatment, neutral red, read-out: LD50 UW228-2 (MB)
Protocol: as §1, §4, §2

D425 cells = assay: Cell viability assay (suspension cell line), MTT/CellTiter Blue, D425; assay type: cell-based, human; settings: for reduction of cell viability, D425: 50 µM, 24 h, first screening; for IC50: Homo sapiens, read-out: LD50 D425 (MB); for IC50 / LD50 D425 (MB): 24 h treatment, suspension cell assay; for HUVEC/D425 LD50 Fold Change: ratio of LD50 HUVEC to LD50 D425; for D425 cell viability as compared to HUVEC cells: dose-response 24 h, Student's t-test, p ≤0.05 / p ≤0.01
Protocol: as §1, §2, §3

DAOY cells = assay: Neutral red cell viability assay, DAOY; assay type: cell-based, human; settings: for reduction of cell viability, DAOY: 50 µM, 24 h, first screening; for IC50: Homo sapiens, Daoy, 24 h treatment, neutral red, read-out: LD50 DAOY (MB)
Protocol: as §1, §4, §2

HUH7 cells = assay: Neutral red cell viability assay, HUH7; assay type: cell-based, human; settings: for IC50: Homo sapiens, Huh-7, 24 h treatment, neutral red, read-out: LD50 HUH7 (HCC)
Protocol: as §1, §4, §2

Structure (SMILES)	LD50 HUVEC (HUVEC cells [1])	LD50 HUVEC (HUVEC cells [2])	reduction of cell viability, D283 (D283 cells)	IC50 (D283 cells)	decrease of cell viability, U251 (U251 cells)	IC50 (U251 cells)	reduction of cell viability, AKH12 (AKH12 cells)	IC50 (AKH12 cells)	reduction of cell viability, UW228-2 (UW228-2 cells)	IC50 (UW228-2 cells)	reduction of cell viability, D425 (D425 cells)	IC50 (D425 cells)	HUVEC/D425 LD50 Fold Change (D425 cells)	reduction of cell viability, DAOY (DAOY cells)	IC50 (DAOY cells)	IC50 (HUH7 cells)	D425 cell viability as compared to HUVEC cells (D425 cells)	LD50 D425 (MB) (D425 cells)	reduction of cell viability, HUH7 (HUH7 cells; 50 µM, 24 h, first screening)
CC(c1ccccc1)N1C2CCC(C2)C1CNS(=O)(=O)c1ccc(-c2ccccc2)cc1 (stereo not drawn) [Compound 10a]	28 ± 1.86 µM	11.58 ± 1.11 µM	reduced cell viability	17.7 ± 1.09 µM	more than 50%	13.5 ± 0.9 µM	reduced cell viability below LD50	15.5 ± 1.3 µM	reduced cell viability	28.8 ± 2.1 µM	reduced cell viability	16.7 ± 2.11 µM	1.67	reduced cell viability	16 ± 1.12 µM	13.9 ± 1.02 µM	–	–	–
Cc1ccc(-c2ccc(S(=O)(=O)NCC3C4CCC(C4)N3C(C)c3ccccc3)cc2)cc1 [Compound 10b, 4-(4-Tolyl)-N-((2-((S)-1-phenylethyl)-(1S,3R,4R)-2-azabicyclo[2.2.1]heptane-3-yl)benzenesulfonamide]	28.9 ± 2.97 µM	12.88 ± 2.13 µM	–	31.3 ± 1.32 µM	more than 50%	20.4 ± 1.58 µM	reduced cell viability below LD50	23.7 ± 1.27 µM	–	–	–	16.4 ± 2.34 µM	1.76	–	–	21.3 ± 1.23 µM	significantly reduced D425 cell viability as compared to HUVEC cells	–	–
CC(c1ccccc1)N1C2CCC(C2)C1CNS(=O)(=O)c1ccc(-c2ccc(F)cc2)cc1 [Compound 10c, 4-(4-Fluorophenyl)-N-((2-((S)-1-phenylethyl)-(1S,3R,4R)-2-azabicyclo[2.2.1]heptane-3-yl)benzenesulfonamide]	16.77 ± 0.71 µM	13.8 ± 1.14 µM	reduced cell viability	27.2 ± 2.35 µM	more than 50%	21.3 ± 1.01 µM	reduced cell viability below LD50	23.3 ± 2.1 µM	reduced cell viability	15.7 ± 1.32 µM	reduced cell viability	5.38 µM	3.11	reduced cell viability	16 ± 2.1 µM	17.3 ± 0.98 µM	significantly reduced D425 cell viability as compared to HUVEC cells	5.38 ± 0.77 µM	–
COc1ccc(-c2ccc(S(=O)(=O)NCC3C4CCC(C4)N3C(C)c3ccccc3)cc2)cc1 [Compound 10e, 4-(4-Metoxyphenyl)-N-((2-((S)-1-phenylethyl)-(1S,3R,4R)-2-azabicyclo[2.2.1]heptane-3-yl)benzenesulfonamide]	11.54 ± 2.8 µM	9.58 ± 1.88 µM	reduced cell viability	15.6 ± 0.59 µM	more than 50%	16 ± 2 µM	reduced cell viability below LD50	32 ± 2.21 µM	reduced cell viability	26.7 ± 1.52 µM	reduced cell viability	11 ± 0.47 µM	1.05	reduced cell viability	15.5 ± 1.62 µM	16.3 ± 0.69 µM	significantly reduced D425 cell viability as compared to HUVEC cells	–	–
CC(c1ccccc1)N1C2CCC(C2)C1CNS(=O)(=O)c1ccc(C(F)(F)F)cc1 [Compound 10f, 4-Trifluoromethyl-N-((2-((S)-1-phenylethyl)-(1S,3R,4R)-2-azabicyclo[2.2.1]heptane-3-yl)benzenesulfonamide]	23.15 ± 2.21 µM	17.26 ± 2.33 µM	reduced cell viability	18.8 ± 1.22 µM	more than 50%	32.7 ± 1.32 µM	reduced cell viability below LD50	24.7 ± 1.98 µM	reduced cell viability	28 ± 2.09 µM	reduced cell viability	20.2 ± 0.79 µM	1.14	reduced cell viability	15.8 ± 1.09 µM	24.6 ± 1.54 µM	–	–	–
CC(c1ccccc1)N1C2CCC(C2)C1CNS(=O)(=O)c1cc(C(F)(F)F)cc(C(F)(F)F)c1 [Compound 10g, 3,5-Bis(trifluoromethyl)-N-((2-((S)-1-phenylethyl)-(1S,3R,4R)-2-azabicyclo[2.2.1]heptane-3-yl)benzenesulfonamide]	17.62 ± 2.98 µM	10.77 ± 0.93 µM	reduced cell viability	16 ± 1 µM	more than 50%	11.8 ± 1.58 µM	reduced cell viability below LD50	10.2 ± 1.09 µM	reduced cell viability	12 ± 0.99 µM	reduced cell viability	6.61 µM	2.66	reduced cell viability	19.2 ± 1.42 µM	11.7 ± 1.53 µM	significantly reduced D425 cell viability as compared to HUVEC cells	6.61 ± 1.52 µM	–
CC(c1ccccc1)N1CC(NS(=O)(=O)c2ccc(C(F)(F)F)cc2)C2CCC1C2 [Compound 11f, 4-Trifluoromethyl-N-((2-((S)-1-phenylethyl)-(1S,4S,5R)-2-azabicyclo[3.2.1]octan-4-yl)benzenesulfonamide]	31.52 ± 1.16 µM	22.28 ± 1.45 µM	reduced cell viability	29.9 ± 1.5 µM	more than 50%	31.5 ± 2 µM	–	–	reduced cell viability	31.4 ± 2.12 µM	reduced cell viability	32 ± 1.37 µM	0.98	reduced cell viability	17.3 ± 0.99 µM	42.7 ± 1.98 µM	–	–	more than 50%
